One may read the Ki as a measure of affinity in units of concentration, obtained from inhibition or displacement. Lower therefore signals tighter binding.

Consider three molecules from patent publication US20100204202A1, “DRUG FOR ALLEVIATING MOTOR COMPLICATIONS OR PSYCHIATRIC SYMPTOMS OF PARKINSON'S DISEASE” (Asubio Pharma Co., Ltd., priority 2007, published 2010).

“Also recorded” adds a separate entry of the source. Counter-ions that a name gives are not always drawn.

Experiment [1] deals with T1, human serotonin 1A receptors (Homo sapiens, UniProt P08908).
T1 construct: expressed in transfected cells; host or cells: CHO-K1
T1 sequence (P08908 1-422): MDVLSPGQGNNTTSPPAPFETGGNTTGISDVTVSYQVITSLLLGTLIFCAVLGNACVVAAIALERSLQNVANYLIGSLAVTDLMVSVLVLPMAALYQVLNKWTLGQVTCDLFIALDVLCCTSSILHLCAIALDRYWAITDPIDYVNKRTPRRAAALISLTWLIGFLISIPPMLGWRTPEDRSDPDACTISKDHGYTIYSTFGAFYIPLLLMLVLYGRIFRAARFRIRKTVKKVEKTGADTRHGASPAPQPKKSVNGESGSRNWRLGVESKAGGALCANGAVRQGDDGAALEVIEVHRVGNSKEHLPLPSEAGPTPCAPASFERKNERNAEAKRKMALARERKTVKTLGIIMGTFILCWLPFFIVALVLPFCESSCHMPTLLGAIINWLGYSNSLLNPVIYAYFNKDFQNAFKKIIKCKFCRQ
Kind of experiment: Binding affinity test on human serotonin 1A receptors ([3H]8-OH-DPAT, CHO-K1 membranes). The note with it: for Ki: Serotonin 1A; for binding affinity (in words): human serotonin 1A receptors. As for the experimental part: For the test, membrane specimens prepared from Chinese hamster ovary (CHO-K1) cells expressing human serotonin 1A receptors were used. To a 50 mM Tris-HCl buffer (pH 7.4) including 5 mM CaCl2, 0.1% ascorbic acid, and 10 μg/mL saponin, [^3H] […] The reaction solution was allowed to react at 25° C. for 60 minutes, then the reaction solution was filtered with a cell harvester, the filtered filter paper was transferred to a measurement vial, a liquid scintillator was added and the receptor bond radioactivity remaining on the filter paper was determined by a liquid scintillation counter. The nonspecific bonds were defined as the amount of bonds in the presence of 10 μM serotonin.
The following formula was used to calculate the binding inhibition rate: […]
Furthermore, the inhibition constant (Ki) was calculated.

Experiment [2] has as its system Parkinson's disease model rats. As to the kind of experiment: Hyperkinesia of the forelimbs and shortening of rotational behavior duration induced by repeated doses of levodopa. It is filed as in vivo, rat. The note with it: for rats that did not exhibit rotational behavior: 5 mg/kg oral. An excerpt:
In rats with unilateral nigrostriatal dopamine nerve destruction generally used as Parkinson's disease animal models, it became clear that by administering levodopa by repeated dosage for about 5 weeks, behavior resembling the symptoms of advanced stage Parkinson's disease appeared. That is, in Parkinson's disease model rats prepared in the same way as in Example 4, along with repeated doses of levodopa, abnormal behavior such as involuntary extending of the forelimb or opening or closing of the hand, up-and-down movement of the wrist, choreiform tremor in the forelimb on the opposite side of microinjection of 6-hydroxydopamine was observed (FIG. 3). This abnormal behavior is reported by Steece-Collier et al. (Steece-Collier K. et al., “Embryonic mesencephalic grafts increase levodopa-induced forelimb hyperkinesia in parkinsonian rats”, Movement Disorders, 2003, 18, p. 1442-1454) as hyperkinesia of the forelimbs.
This appears dependent on the period of repeated doses of levodopa and reportedly is similar to clinical dyskinesia. […] Bibbiani et al. (Bibbiani F. et al., “Serotonin 5-HT1A agonist improves motor complications in rodent and primate parkinsonian models”, Neurology, 2001, 57, p. 1829-1834) report that in Parkinson's disease model rats, along with repeated doses of levodopa, a shortening of the rotational behavior duration is observed and that this phenomenon resembles the wearing off phenomenon in clinical studies.
That is, they treated each group by repeated doses of levodopa and repeated dosage of the tested substance for about 2 weeks (Monday to Friday) and observed the hyperkinesia of the forelimbs and rotational behavior after levodopa administration. Note that the SUN N4057 was subcutaneously administered right before levodopa administration, the sarizotan was orally administered about 20 minutes before levodopa dosage in accordance with above-mentioned known reports (Bibbiani F. et al., Neurology, 2001, 57, p. 1829-1834), and the Example Compound 4 of Japanese Patent Publication No. 2005-298402A was subcutaneously administered about 30 minutes before levodopa dosage in accordance with the above-mentioned Japanese Patent Publication No. 2005-298402A. Further, for the solvent, for SUN N4057 and Example Compound 4 of Japanese Patent Publication No. 2005-298402A, physiological saline was used.
In the same way as Example 4, Parkinson's disease model rats were prepared and the rats treated by repeated doses of levodopa (twice a day, Monday to Friday) for 5 weeks and measured for hyperkinesia of the forelimbs and rotational behavior. Further, based on the results of the hyperkinesia of the forelimbs and rotational behavior duration, the rats were assigned to the groups so as to prevent any significant difference between them, then the effects of the tested substances on these behaviors resembling symptoms of advanced stage Parkinson's disease patients were compared and studied. […] Note that compound Ib (0.3, 1 mg/kg) and compound Ic (0.3, 1 mg/kg) were both intraperitoneally administered right before levodopa administration. For the solvent, physiological saline was used.

Where [3] appears, read: 0.03, 0.1 mg/kg s.c. repeated 2 weeks.
[4] abbreviates: 1, 3 mg/kg s.c. repeated 2 weeks.

For `Cl.Cl.Fc1ccc(-c2cncc(CNC[C@H]3CCc4ccccc4O3)c2)cc1` [Sarizotan, 1-[(2R)-3,4-dihydro-2H-chromen-2-yl]-N-{[5-(4-fluorophenyl)pyridin-3-yl]methyl}methanamine dihydrochloride], in experiment [1], the Ki was determined as 0.0293 nM and the “binding affinity (in words)” value was “particularly strong binding affinity”. For the same molecule, the rotational behavior duration result in experiment [2] (5 mg/kg oral repeated 2 weeks) is “significant shortening”. For the same molecule, the “hyperkinesia of the forelimbs” value in experiment [2] (5 mg/kg oral repeated 2 weeks, 1 hour after levodopa dosage, p=0.099) is given as “tendency of the hyperkinesia of the forelimbs to be inhibited”. Moreover, in experiment [2] (30 minutes after levodopa dosage), the “rats that did not exhibit rotational behavior” value is on record as “Six out of nine”. For the same molecule, the “rats that did not exhibit rotational behavior” value in experiment [2] (1 hour after levodopa dosage) is listed as “three out of nine”. Further, the “start of rotational behavior due to levodopa dosage” value in experiment [2] (1 and 5 mg/kg oral repeated 2 weeks) is listed as “delay in the start of rotational behavior”. Besides, the “hyperkinesia of the forelimbs, compared with the solvent group (Dunnett's test)” value in experiment [2] (repeated oral administration, week 7 of levodopa) was “no significant difference”.

As to `O=C1c2ccccc2OC=C(Cl)N1CCCCN1CC=C(c2ccccn2)CC1` [SUN N4057, 3-chloro-4,5-dihydro-4-{4-[4-(2-pyridyl)-1,2,3,6-tetrahydropyridin-1-yl]butyl}-1,4-benzoxazepin-5-one.dihydrochloride-dihydrate], in experiment [1], the Ki is 0.0249 nM and the “binding affinity (in words)” value is “particularly strong binding affinity”. In addition, the “hyperkinesia of the forelimbs” value in experiment [2] (0.03 mg/kg s.c. repeated 2 weeks, 1 hour after levodopa dosage) was “significantly inhibited”. For the same molecule, the “hyperkinesia of the forelimbs” value in experiment [2] (0.1 mg/kg s.c. repeated 2 weeks, 1 and 2 hours after levodopa dosage) was “significantly inhibited”. Further, in experiment [2] (setting [3]), the “end of the rotational behavior” value is “significantly prolonged” and the rotational behavior duration entry is “significantly prolonged”.

`Cl.Cl.O=c1[nH]c2cccc(C3CCCN(Cc4cncc(-c5ccc(F)cc5)c4)C3)c2o1` (stereo not shown) [7-(1-{[5-(4-fluorophenyl)pyridin-3-yl]methyl}piperidin-3-yl)-1,3-benzoxazol-2(3H)-one dihydrochloride]: the Ki in experiment [1] stood at 2.67 nM. Besides, the rotational behavior duration entry in experiment [2] (3 mg/kg s.c. repeated 2 weeks) was “significant prolongation”. In addition, in experiment [2] (setting [4]), the “end of the rotational behavior” value was “prolonged” and the “start of rotational behavior” value is “started earlier”. For the same molecule, the “hyperkinesia of the forelimbs” value in experiment [2] (1, 3 mg/kg s.c. repeated 2 weeks, vs physiological saline group, dihydrochloride) is “no action was exhibited; also recorded: no significant difference”.
